Source: ChEMBL document CHEMBL1201861, “Genomics of Drug Sensitity in Cancer screening data, Wellcome Trust Sanger Institute”

Legend:
Test in all cases: cells
[1] = test system: NCI-H2405; assay type: functional, cell-based, Homo sapiens; settings: Homo sapiens, NCI-H2405;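 also: growth inhibition of the human cell line, read out with a cell viability assay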
Description: SANGER: Inhibition of human NCI-H2405 cell growth in a cell viability assay.

[2] = test system: NCI-H650; assay type: functional, cell-based, Homo sapiens; settings: Homo sapiens, NCI-H650;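 also: growth inhibition of NCI-H650 cells, read out by a viability assay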
Description: SANGER: Inhibition of human NCI-H650 cell growth in a cell viability assay.

[3] = test system: NCI-H810; assay type: functional, cell-based, Homo sapiens; settings: Homo sapiens, NCI-H810;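 also: IC50 reflects inhibition of cancer cell line growth, read out with a cell viability assay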
Description: SANGER: Inhibition of human NCI-H810 cell growth in a cell viability assay.

[4] = test system: SW948; assay type: functional, cell-based, Homo sapiens; settings: Homo sapiens, SW948;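 also: growth inhibition of SW948 cells, read out with a cell viability assay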
Description: SANGER: Inhibition of human SW948 cell growth in a cell viability assay.

[5] = test system: MC-IXC; assay type: functional, cell-based, Homo sapiens; settings: Homo sapiens, MC-IXC;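 also: growth inhibition of MC-IXC cells, read out with a cell viability assay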
Description: SANGER: Inhibition of human MC-IXC cell growth in a cell viability assay.

[6] = test system: DMS-273; assay type: functional, cell-based, Homo sapiens; settings: Homo sapiens, DMS-273
Description: SANGER: Inhibition of human DMS-273 cell growth in a cell viability assay.

[7] = test system: SW 1116; assay type: functional, cell-based, Homo sapiens; settings: Homo sapiens, SW 1116;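 also: growth inhibition of SW1116 cells, read out with a cell viability assay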
Description: SANGER: Inhibition of human SW1116 cell growth in a cell viability assay.

[8] = test system: MOLT-13; assay type: functional, cell-based, Homo sapiens; settings: Homo sapiens, MOLT-13;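 also: IC50 for suppression of MOLT-13 cell growth, read out with a cell viability assay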
Description: SANGER: Inhibition of human MOLT-13 cell growth in a cell viability assay.

[9] = test system: NCI-H28; assay type: functional, cell-based, Homo sapiens; settings: Homo sapiens, NCI-H28;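 also: growth inhibition of human NCI-H28 cells, read out as cell viability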
Description: SANGER: Inhibition of human NCI-H28 cell growth in a cell viability assay.

[10] = test system: BEN; assay type: functional, cell-based, Homo sapiens; settings: Homo sapiens, BEN;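 also: growth inhibition of the BEN cell line, read out with a cell viability assay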
Description: SANGER: Inhibition of human BEN cell growth in a cell viability assay.

[11] = test system: HuO9; assay type: functional, cell-based, Homo sapiens; settings: Homo sapiens, HuO9;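 also: growth inhibition of HuO9 cells, read out with a cell viability assay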
Description: SANGER: Inhibition of human HuO9 cell growth in a cell viability assay.

[12] = test system: LoVo; assay type: functional, cell-based, Homo sapiens; settings: Homo sapiens, LoVo;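 also: growth inhibition of human LoVo cells, read out with a cell viability assay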
Description: SANGER: Inhibition of human LoVo cell growth in a cell viability assay.

[13] = test system: RD; assay type: functional, cell-based, Homo sapiens; settings: Homo sapiens, RD
Description: SANGER: Inhibition of human RD cell growth in a cell viability assay.

[14] = test system: HPAF-II; assay type: functional, cell-based, Homo sapiens; settings: Homo sapiens, HPAF-II;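 also: growth inhibition of HPAF-II cells, read out with a cell viability assay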
Description: SANGER: Inhibition of human HPAF-II cell growth in a cell viability assay.

[15] = test system: SCC-4; assay type: functional, cell-based, Homo sapiens; settings: Homo sapiens, SCC-4;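 also: growth inhibition of human SCC-4 cells, read out as cell viability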
Description: SANGER: Inhibition of human SCC-4 cell growth in a cell viability assay.

[16] = test system: KP-N-YN; assay type: functional, cell-based, Homo sapiens; settings: Homo sapiens, KP-N-YN;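 also: growth inhibition of KP-N-YN cells, read out with a cell viability assay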
Description: SANGER: Inhibition of human KP-N-YN cell growth in a cell viability assay.

[17] = test system: C-33-A; assay type: functional, cell-based, Homo sapiens; settings: Homo sapiens, C-33-A;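 also: cell viability assay measuring growth inhibition of C-33-A cells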
Description: SANGER: Inhibition of human C-33-A cell growth in a cell viability assay.

[18] = test system: MDA-MB-453; assay type: functional, cell-based, Homo sapiens; settings: Homo sapiens, MDA-MB-453
Description: SANGER: Inhibition of human MDA-MB-453 cell growth in a cell viability assay.

[19] = test system: DK-MG; assay type: functional, cell-based, Homo sapiens; settings: Homo sapiens, DK-MG;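 also: growth inhibition of DK-MG cells, read out with a cell viability assay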
Description: SANGER: Inhibition of human DK-MG cell growth in a cell viability assay.

[20] = test system: ASPC1; assay type: functional, cell-based, Homo sapiens; settings: Homo sapiens, ASPC1;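 also: growth inhibition of AsPC-1 cells, read out with a cell viability assay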
Description: SANGER: Inhibition of human AsPC-1 cell growth in a cell viability assay.

[21] = test system: HCC1419; assay type: functional, cell-based, Homo sapiens; settings: Homo sapiens, HCC1419;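 also: growth inhibition of human HCC1419 cells, read out as cell viability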
Description: SANGER: Inhibition of human HCC1419 cell growth in a cell viability assay.

[22] = test system: HCC70; assay type: functional, cell-based, Homo sapiens; settings: Homo sapiens, HCC70;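 also: cell viability assay measuring how strongly the compound suppresses proliferation of HCC70 cells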
Description: SANGER: Inhibition of human HCC70 cell growth in a cell viability assay.

[23] = test system: SW1573; assay type: functional, cell-based, Homo sapiens; settings: Homo sapiens, SW1573;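 also: growth inhibition of SW1573 cells, read out with a cell viability assay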
Description: SANGER: Inhibition of human SW1573 cell growth in a cell viability assay.

[24] = test system: OE19; assay type: functional, cell-based, Homo sapiens; settings: Homo sapiens, OE19;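 also: growth inhibition of OE19 cells, measured through a cell viability read-out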
Description: SANGER: Inhibition of human OE19 cell growth in a cell viability assay.

[25] = test system: CAL-27; assay type: functional, cell-based, Homo sapiens; settings: Homo sapiens, CAL-27;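 also: Viability-based readout, IC50 reflecting inhibition of CAL-27 cell growth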
Description: SANGER: Inhibition of human CAL-27 cell growth in a cell viability assay.

[26] = test system: FTC-133; assay type: functional, cell-based, Homo sapiens; settings: Homo sapiens, FTC-133
[27] = test system: NB7; assay type: functional, cell-based, Homo sapiens; settings: Homo sapiens, NB7;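 also: growth inhibition of NB7 cells, read out with a cell viability assay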
Description: SANGER: Inhibition of human NB7 cell growth in a cell viability assay.

[28] = test system: CHL-1; assay type: functional, cell-based, Homo sapiens; settings: Homo sapiens, CHL-1;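 also: cell growth inhibition, read out with a cell viability assay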
Description: SANGER: Inhibition of human CHL-1 cell growth in a cell viability assay.

[29] = test system: A-375; assay type: functional, cell-based, Homo sapiens; settings: Homo sapiens, A-375;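 also: growth inhibition of A375 cells, read out with a cell viability assay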
Description: SANGER: Inhibition of human A375 cell growth in a cell viability assay.

[30] = test system: J82; assay type: functional, cell-based, Homo sapiens; settings: Homo sapiens, J82;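 also: growth inhibition of J82 cells, read out with a cell viability assay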
Description: SANGER: Inhibition of human J82 cell growth in a cell viability assay.

[31] = test system: DU-145; assay type: functional, cell-based, Homo sapiens; settings: Homo sapiens, DU-145
Description: SANGER: Inhibition of human DU-145 cell growth in a cell viability assay.

[32] = test system: HuCCT-1; assay type: functional, cell-based, Homo sapiens, HuCCT1; settings: Homo sapiens, HuCCT-1;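 also: growth inhibition of HuCCT-1 cells, read out by a cell viability assay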
Description: SANGER: Inhibition of human HuCCT1 cell growth in a cell viability assay.

[33] = test system: SK-MEL-28; assay type: functional, cell-based, Homo sapiens; settings: Homo sapiens, SK-MEL-28;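 also: growth inhibition of human SK-MEL-28 cells, read out with a cell viability assay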
Description: SANGER: Inhibition of human SK-MEL-28 cell growth in a cell viability assay.

[34] = test system: CAL-54; assay type: functional, cell-based, Homo sapiens; settings: Homo sapiens, CAL-54;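 also: growth inhibition of CAL-54 cells, read out by a viability measurement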
Description: SANGER: Inhibition of human CAL-54 cell growth in a cell viability assay.

[35] = test system: KNS-62; assay type: functional, cell-based, Homo sapiens; settings: Homo sapiens, KNS-62;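 also: inhibition of cell growth, read out with a cell viability assay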
Description: SANGER: Inhibition of human KNS-62 cell growth in a cell viability assay.

[36] = test system: D-542MG; assay type: functional, cell-based, Homo sapiens; settings: Homo sapiens, D-542MG
Description: SANGER: Inhibition of human D-542MG cell growth in a cell viability assay.

[37] = test system: NCI-H1703; assay type: functional, cell-based, Homo sapiens; settings: Homo sapiens, NCI-H1703;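 also: growth inhibition of NCI-H1703 cells, read out via a cell viability assay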
Description: SANGER: Inhibition of human NCI-H1703 cell growth in a cell viability assay.

[38] = test system: 23132-87; assay type: functional, cell-based, Homo sapiens; settings: Homo sapiens
Description: SANGER: Inhibition of human 23132-87 cell growth in a cell viability assay.

SMILES | IC50 [1] [µM] | IC50 [2] [µM] | IC50 [3] [µM] | IC50 [4] [µM] | IC50 [5] [nM] | IC50 [6] [µM] | IC50 [7] [µM] | IC50 [8] [nM] | IC50 [9] [µM] | IC50 [10] [µM] | IC50 [11] [nM] | IC50 [12] [nM] | IC50 [13] [µM] | IC50 [14] [µM] | IC50 [15] [µM] | IC50 [16] [µM] | IC50 [17] [µM] | IC50 [18] [µM] | IC50 [19] [µM] | IC50 [20] [µM] | further results
COc1cc2c(Nc3ccc(NC(=O)c4ccccc4)cc3)ncnc2cc1OCCCN1CCOCC1 | > 4 | > 4 | > 4 | > 4 | > 4000 | > 4 | > 4 | 1570 | > 4 | > 4 | > 4000 | > 4000 | > 4 | > 4 | > 4 | > 4 | > 4 | > 4 | > 4 | > 4 | IC50 [21]: > 4 µM; IC50 [22]: > 4 µM; IC50 [23]: > 4 µM; IC50 [24]: > 4 µM; IC50 [25]: > 4 µM; IC50 [26]: > 4 µM; IC50 [27]: 1750 nM; IC50 [28]: 3420 nM; IC50 [29]: 3.85 µM; IC50 [30]: > 4 µM; IC50 [31]: > 4000 nM; IC50 [32]: > 4 µM; IC50 [33]: > 4 µM; IC50 [34]: > 4 µM; IC50 [35]: > 4 µM
CC(C)CCN1c2nc(Nc3cc(F)c(O)c(F)c3)ncc2N(C)C(=O)C1C (stereo not drawn) | > 5 | > 5 | 3.22 | > 5 | 796 | > 5 | > 5 | 3970 | > 5 | > 5 | 2370 | 1470 | 3.43 | > 5 | 3.09 | > 5 | > 5 | > 5 | > 5 | > 5 | IC50 [36]: > 5 µM; IC50 [21]: > 5 µM; IC50 [22]: > 5 µM; IC50 [23]: > 5 µM; IC50 [24]: > 5 µM; IC50 [25]: > 5 µM; IC50 [26]: > 5 µM; IC50 [27]: > 5000 nM; IC50 [28]: 1960 nM; IC50 [29]: 4.05 µM; IC50 [30]: > 5 µM; IC50 [31]: 2110 nM; IC50 [37]: > 5 µM; IC50 [32]: > 5 µM; IC50 [33]: > 5 µM; IC50 [34]: > 5 µM; IC50 [38]: > 5 µM; IC50 [35]: > 5 µM
CC1(C)CNc2cc(NC(=O)c3cccnc3NCc3ccncc3)ccc21 [MOTESANIB] | > 2 | > 2 | > 2 | > 2 | > 2000 | > 2 | > 2 | > 2000 | > 2 | > 2 | > 2000 | > 2000 | > 2 | > 2 | > 2 | > 2 | > 2 | > 2 | > 2 | > 2 | IC50 [21]: > 2 µM; IC50 [22]: > 2 µM; IC50 [23]: > 2 µM; IC50 [24]: > 2 µM; IC50 [25]: > 2 µM; IC50 [26]: > 2 µM; IC50 [27]: > 2000 nM; IC50 [28]: > 2000 nM; IC50 [29]: > 2 µM; IC50 [30]: > 2 µM; IC50 [31]: 469 nM; IC50 [32]: > 2 µM; IC50 [33]: > 2 µM; IC50 [34]: > 2 µM; IC50 [35]: > 2 µM
